One molecule from patent US4812409A, “Hydrolyzable fluorescent substrates and analytical determinations using same” (Eastman Kodak Company, priority 1986, dated 1989) can be followed below.

Test [1] deals with carboxy esterase (Esterase, Type II). Kind of test: Determination of esterase activity in a dry analytical element. It is filed as biochemical. The conditions noted are these: filter paper element; 10 μl of 10 μg/ml esterase, pH 7.5; 1 minute incubation at 37° C. On the procedure: A strip of Whatman No. 2 filter paper (VWR Scientific Co., Rochester, N.Y., U.S.A.) was immersed in a solution of the substrate in methanol (3 mg in 0.5 ml). The paper was then allowed to dry at 37° C. for two hours.
A carboxy esterase (Esterase, Type II, 100 I.U./mg protein from Sigma Chemical Co., St. Louis, Mo., U.S.A.) was dissolved in 0.05 molar potassium phosphate buffer (pH 7.5), 10 μg/ml of buffer. A sample (10 μl) of this solution was applied to the filter paper and the sample came into contact with the substrate therein. A Control solution containing only buffer was applied to a separate area of the element. After 1 minute incubation at 37° C., the element was visually examined.

A further test relates to diacetinase. Kind of test: Solution determination of an esterase enzyme. It is filed as biochemical. The conditions noted are these: pH 7.5, 25° C.; for Relative Fluorescence, Test Cell: ex 540 nm, em 620 nm. On the procedure: A buffered solution of the substrate was prepared as follows. The substrate in N,N-dimethylformamide (16 mg/ml solvent) was added to 500 μl TRITON X-100 surfactant, and the resulting solution was added slowly to 25 ml potassium phosphate buffer (0.05 molar, pH 7.5) with stirring. Three milliliters of the buffered solution containing the substrate was placed in each of two quartz cells. To one cell was added 10 μl of a solution containing diacetinase (0.218 I.U. diacetinase per μl of potassium phosphate buffer, pH 7.5). The second cell was the Control. The relative fluorescence of each cell solution was measured at various times with a commercially available Perkin-Elmer fluorometer (excitation, 540 nm, maximum emission, 620 nm) at pH 7.5 and 25° C.

A further test has as its system white blood cells. Kind of test: Determination of esterase activity in white blood cells. The class given is cell-based. As to conditions: pH 7.5, ex 540 nm, em 620 nm. On the procedure:
Leucocyte-rich layers (buffy coats) were purified from blood of healthy adult donors (taken in ACD tubes*) by adding 1.5 ml of Dextran T70 (6% in balanced salt solution), purchased from Pharmacia Fine Chemical (Piscataway, N.J., U.S.A.), to a 10 ml tube of blood. The tubes were allowed to set for one hour, then the plasma layer was transferred to sterile 15 ml centrifuge tubes, and the tubes were filled up to 7.5 ml with PBS solution (8.5 g sodium chloride in 0.05 molar potassium phosphate buffer, pH 7.5). The tubes were centrifuged at 1000 RPM for 10 minutes. The resulting cell pellet was resuspended in 10 ml lysing solution [0.83 g ammonium chloride, 0.1 g sodium bicarbonate and 0.003 g (ethylenedinitrilo)tetraacetic acid disodium salt in 100 ml of water, pH 7.2], and the tubes were allowed to set until the solution cleared. The tubes were again centrifuged, and the pellet was washed and resuspended in PBS. Cells were counted and adjusted to about 10^6 cells/ml.
Three milliliters of various concentrations of white blood cells in potassium phosphate buffer (0.05 molar, pH 7.5) were mixed with 10 μl of the substrate of Example 3 ([…]), and the relative fluorescence was measured at an excitation wavelength of 540 nm and a maximum emission wavelength of 620 nm.

In the case of `CC(=O)Oc1ccc2c3c(cccc13)C(=O)C=C2` [Example 3], the “Colour of element area contacted with esterase enzyme (visual examination)” value in test [1] is on record as “bright orange”. Also, the “Relative Fluorescence, Test Cell” value in the test with diacetinase (0 min) was found to be 134; in the test with diacetinase (0.5 min), 142; in the test on diacetinase (1.0 min), 150; with diacetinase (3.0 min) it was 161; in the test on diacetinase (5.0 min), 175; in the test on diacetinase (7.0 min), 202. Also, the “Relative Fluorescence, Test Cell” value in the test with diacetinase (10.0 min) came out at 238; with diacetinase (15.0 min) it was 266. Besides, in the test on diacetinase, the “Generation of fluorescence in the cell containing the esterase enzyme (in words)” value is listed as “rapid generation of fluorescence”. In addition, the “Relative Fluorescence” value in the test with white blood cells (Sample 2, Cell Conc/μl 4.92 × 10^3, 0 Min) was 28.2; in the test with white blood cells (Sample 2, Cell Conc/μl 4.92 × 10^3, 10 Min), 37.1; with white blood cells (Sample 2, Cell Conc/μl 4.92 × 10^3, 15 Min), 42.6; with white blood cells (Sample 2, Cell Conc/μl 4.92 × 10^3, 30 Min) it was 60.4; with white blood cells (Sample 3, Cell Conc/μl 4.92 × 10^4, 0 Min), 23.2; with white blood cells (Sample 3, Cell Conc/μl 4.92 × 10^4, 10 Min), 41.7. Moreover, the “Relative Fluorescence” value with white blood cells (Sample 3, Cell Conc/μl 4.92 × 10^4, 15 Min) is on record as 48.8; in the test on white blood cells (Sample 3, Cell Conc/μl 4.92 × 10^4, 30 Min) it was 70.3; with white blood cells (Sample 4, Cell Conc/μl 4.92 × 10^5, 0 Min), 25.6; with white blood cells (Sample 4, Cell Conc/μl 4.92 × 10^5, 10 Min), 69.0; in the test with white blood cells (Sample 4, Cell Conc/μl 4.92 × 10^5, 15 Min) it was 85.0; with white blood cells (Sample 4, Cell Conc/μl 4.92 × 10^5, 30 Min), 124.0.
